Assay type in all cases: cell-based
Assay [1] has as its system Pseudomonas aeruginosa (IAM11514). The experiment in a line: MIC determination test (growth by absorbance at 620 nm). How it is done: (§1) Then, the suspensions were centrifuged (5800×g, 30 min), whereby supernatants were obtained.
(§2) In each of the obtained LB culture media containing the antibacterial agents, 1 μL of Escherichia coli (IF03972), Staphyloccocus aureus (IAM112082), Pseudomonas aeruginosa (IAM11514), or Bacillus subtilis (IFO3215), which are microorganisms generally used in the evaluation of antibacterial properties, was inoculated and cultured at 27° C. for 5 days. Microplates (96-well microplates, available Falcon) were used for the culturing of the microorganisms, and the growth of the microorganisms was checked by determination of absorbance at 620 nm with a microplate reader (Multisckan Ascent available from Labsystems). As the microorganisms to be inoculated, those prepared as follows were used: microorganisms of each type were cultured under agitation at 27° C. for 18 hours in a 5 mL of an ordinary bouillon culture medium (available from Eiken Chemical Co., Ltd.), then, 1 mL of the same was sampled and centrifuged at 10000 rpm for 5 minutes, sediments were suspended in 1 ml of a 0.85% saline solution, and the suspension was diluted to 100 times.
as §1
(§3) In each of the obtained LB culture media containing the antibacterial agents, 1 μL of Staphyloccocus aureus or Bacillus subtilis was inoculated and cultured at 27° C. for 5 days. Microplates (96-well microplates, available Falcon) were used for the culturing of the microorganisms, and the growth of the microorganisms was checked by determination of absorbance at 620 nm with a microplate reader (Multisckan Ascent available from Labsystems). As the microorganisms to be inoculated, those prepared as follows were used: microorganisms of each type were cultured under agitation at 27° C. for 18 hours in a 5 mL of an ordinary bouillon culture medium (available from Eiken Chemical Co., Ltd.), then, 1 mL of the same was sampled and centrifuged at 10000 rpm for 5 minutes, sediments were suspended in 1 ml of a 0.85% saline solution, and the suspension was further diluted to 100 times.
as §1

For assay [2], the system named is Staphyloccocus aureus (IAM112082). The description is as above. How it is done:
as §1, §2, §1, §3, §1

Assay [3] has as its system Escherichia coli (IF03972). The description is as above. How it is done:
as §1, §2, §1, §3, §1

Assay [4] relates to Bacillus subtilis (IFO3215). Described as above. Here is the method: as §1, §2, §1, §3, §1
The next assay concerns Escherichia coli. The experiment in a line: Bactericidal effect determination test (viable count, pour plate method). The settings on record: for count of viable Escherichia coli: detection limit. Here is the method:
as §1
(§4) An Escherichia coli suspension, 20 μL, was added to each of the obtained LB culture media containing the antibacterial agents, whereby liquids for use in the bactericidal effect determination test were obtained. The liquids were sampled, 50 μL each, at the start, one hour later, three hours later, and 24 hours later, and each sample was added to 4.95 mL of a LP diluent. Each resultant was diluted at four steps, ten times each, and the count of viable bacteria in 1 mL of each diluted liquid was determined by the pour plate method. The Escherichia coli suspension used was a suspension obtained by culturing Escherichia coli under agitation at 27° C. for 18 hours in a 5 mL of an ordinary bouillon culture medium (available from Eiken Chemical Co., Ltd.), then, sampling 1 mL of the same and centrifuging the sample at 10000 rpm for 5 minutes, thereafter, suspending sediments in 1 ml of a 0.85% saline solution, and diluting the same to 10 times.
The suspension was agitated at 30° C. for 18 hours. Then, the suspension was centrifuged (5800×g, 30 min), whereby a supernatant, i.e., an LB culture medium containing an antibacterial agent, was prepared.
as §4, with “to” for “to each of”, “medium” for “media”, “agent,” for “agents,”, “liquid was” for “liquids were”, “start, 0.25 hour later,” for “start,”, “eight” for “24”

Where only a bound is given, the exact number is not on record here.

As to `O.O.O.O.O.O=S(=O)([O-])[O-].[Cu+2]` [copper ions, copper sulfate pentahydrate], the “antibacterial property when phosphorus-adsorbing material was mixed” value in assay [1] is “did not improve”; in assay [2], “improved”; in assay [3], “did not improve”; in assay [4] it was “improved”.

In the case of `O=[N+]([O-])[O-].[Ag+]` [silver ions, silver nitrate], the “MIC of silver ions” value in assay [3] (0.5 to 1% (W/V) of allophane contained) is 0.5 µg/mL; in assay [3] (2% (W/V) of allophane contained) it was 0.125 µg/mL; in assay [3] (4% (W/V) of allophane contained), 0.0313 µg/mL; in assay [3] (allophane not contained), “about 1 mg/L”. Also, the “viable Escherichia coli observed” value with Escherichia coli (silver ions 1 mg/L, 1% (W/V) of allophane) is recorded as “only few Escherichia coli were observed”. Moreover, the “count of viable Escherichia coli” value is under 1000 cfu/ml in the assay on Escherichia coli (silver ions 1 mg/L, 4% (W/V) of regenerated collagen powder); under 1000 cfu/ml in the assay with Escherichia coli (silver ions 1 mg/L, 4% or more of allophane); under 1000 cfu/ml in the assay on Escherichia coli (silver ions 5 mg/L, 1% (W/V) or more of allophane). Besides, the “Count of viable bacteria” value is 10,800,000 cfu/mL in the assay on Escherichia coli (silver ions 1 mg/L, allophane 0% (W/V), time 0 h); 14,900,000 cfu/mL in the assay on Escherichia coli (silver ions 1 mg/L, allophane 0% (W/V), time 1 h); 3,930,000 cfu/mL in the assay on Escherichia coli (silver ions 1 mg/L, allophane 0% (W/V), time 3 h); 95,000,000 cfu/mL in the assay on Escherichia coli (silver ions 1 mg/L, allophane 0% (W/V), time 24 h); 10,800,000 cfu/mL in the assay with Escherichia coli (silver ions 1 mg/L, allophane 1% (W/V), time 0 h); 52,000 cfu/mL in the assay on Escherichia coli (silver ions 1 mg/L, allophane 1% (W/V), time 1 h). Moreover, the “Count of viable bacteria” value in the assay on Escherichia coli (silver ions 1 mg/L, allophane 1% (W/V), time 3 h) is 3,500 cfu/mL; in the assay with Escherichia coli (silver ions 1 mg/L, allophane 1% (W/V), time 24 h), 2,600 cfu/mL; with Escherichia coli (silver ions 1 mg/L, allophane 4% (W/V), time 0 h) it was 10,800,000 cfu/mL; with Escherichia coli (silver ions 1 mg/L, allophane 4% (W/V), time 1 h), 1,100 cfu/mL; in the assay on Escherichia coli (silver ions 1 mg/L, allophane 4% (W/V), time 3 h) it was 1,000 or less cfu/mL; with Escherichia coli (silver ions 1 mg/L, allophane 4% (W/V), time 24 h) it was 1,000 or less cfu/mL. Besides, the “Count of viable bacteria” value in the assay with Escherichia coli (silver ions 1 mg/L, allophane 8% (W/V), time 0 h) is recorded as 10,800,000 cfu/mL; in the assay with Escherichia coli (silver ions 1 mg/L, allophane 8% (W/V), time 1 h), 1,000 or less cfu/mL; in the assay on Escherichia coli (silver ions 1 mg/L, allophane 8% (W/V), time 3 h) it was 1,000 or less cfu/mL; in the assay on Escherichia coli (silver ions 1 mg/L, allophane 8% (W/V), time 24 h) it was 1,000 or less cfu/mL; in the assay on Escherichia coli (silver ions 1 mg/L, regenerated collagen powder 0% (W/V), time 1 h) it was 6.2 × 10^7 cfu/mL; in the assay on Escherichia coli (silver ions 1 mg/L, regenerated collagen powder 0% (W/V), time 3 h), 6.7 × 10^7 cfu/mL. For the same molecule, the “Count of viable bacteria” value with Escherichia coli (silver ions 1 mg/L, regenerated collagen powder 0% (W/V), time 8 h) is recorded as 2.4 × 10^7 cfu/mL; in the assay with Escherichia coli (silver ions 1 mg/L, regenerated collagen powder 0% (W/V), time […]), 8.1 × 10^7 cfu/mL; with Escherichia coli (silver ions 1 mg/L, regenerated collagen powder 4% (W/V), time 1 h) it was 9.9 × 10^6 cfu/mL; in the assay on Escherichia coli (silver ions 1 mg/L, regenerated collagen powder 4% (W/V), time 3 h), 1.4 × 10^5 cfu/mL; with Escherichia coli (silver ions 1 mg/L, regenerated collagen powder 4% (W/V), time 8 h), ≤ 1.0 × 10^3 cfu/mL; in the assay on Escherichia coli (silver ions 1 mg/L, regenerated collagen powder 4% (W/V), time […]) it was 4.7 × 10^4 cfu/mL. The “Count of viable bacteria” value with Escherichia coli (silver ions 5 mg/L, allophane 0% (W/V), last time point (24 h, time cell misprinted)) is on record as 1000 or less cfu/mL; in the assay on Escherichia coli (silver ions 5 mg/L, allophane 0% (W/V), time 0 h), 10,800,000 cfu/mL; with Escherichia coli (silver ions 5 mg/L, allophane 0% (W/V), time 1 h) it was 6,000,000 cfu/mL; in the assay with Escherichia coli (silver ions 5 mg/L, allophane 0% (W/V), time 3 h), 29,000 cfu/mL; in the assay with Escherichia coli (silver ions 5 mg/L, allophane 1% (W/V), last time point (24 h, time cell misprinted)), 1,000 or less cfu/mL; with Escherichia coli (silver ions 5 mg/L, allophane 1% (W/V), time 0 h) it was 10,800,000 cfu/mL. In addition, the “Count of viable bacteria” value with Escherichia coli (silver ions 5 mg/L, allophane 1% (W/V), time 1 h) is 1,000 or less cfu/mL; in the assay with Escherichia coli (silver ions 5 mg/L, allophane 1% (W/V), time 3 h), 1,000 or less cfu/mL; with Escherichia coli (silver ions 5 mg/L, allophane 4% (W/V), last time point (24 h, time cell misprinted)), 1,000 or less cfu/mL; in the assay with Escherichia coli (silver ions 5 mg/L, allophane 4% (W/V), time 0 h), 10,800,000 cfu/mL; with Escherichia coli (silver ions 5 mg/L, allophane 4% (W/V), time 1 h), 1,000 or less cfu/mL; in the assay on Escherichia coli (silver ions 5 mg/L, allophane 4% (W/V), time 3 h), 1,000 or less cfu/mL. The “Count of viable bacteria” value in the assay on Escherichia coli (silver ions 5 mg/L, allophane 8% (W/V), last time point (24 h, time cell misprinted)) is 1,000 or less cfu/mL; in the assay on Escherichia coli (silver ions 5 mg/L, allophane 8% (W/V), time 0 h), 10,800,000 cfu/mL; in the assay with Escherichia coli (silver ions 5 mg/L, allophane 8% (W/V), time 1 h) it was 1,000 or less cfu/mL; with Escherichia coli (silver ions 5 mg/L, allophane 8% (W/V), time 3 h), 1,000 or less cfu/mL.

Consider `O.O.O.O.O.O.O.O=S(=O)([O-])[O-].[Zn+2]` [zinc ions, zinc sulfate heptahydrate], for which the “antibacterial property when phosphorus-adsorbing material was mixed” value in assay [1] is listed as “did not improve”; in assay [2] it was “improved”; in assay [3] it was “did not improve”; in assay [4], “improved”. For the same molecule, the “MIC decrease relative to no allophane (fraction)” value in assay [2] is “about ⅛”.
